One data set deals with immature female rats. Description: Effect on uterine wet weights in immature female rats. The format is in vivo, rat. How it is done: Animals were treated once per day by gavage for three days. Following euthanasia on day four (24 h after the last dose) the uteri were removed, stripped of remaining fat and mesentery and weighed. The dose of the compound of example 3 chosen (50 mg/kg) was 500 fold higher than the efficacious dose in the above experiments.

Data set [1] concerns HLA-B27 rats. Nature of the data set: Stool character in the HLA rat standard pharmacological test procedure. It is filed as in vivo. How it is done:
(§1) A representative NF-kB selective ER ligand was evaluated in the HLA rat standard pharmacological test procedure, which emulates inflammatory bowel disease in humans. The following briefly describes the procedure used and results obtained. Male HLA-B27 rats were obtained from Taconic and provided unrestricted access to a food (PMI Lab diet 5001) and water. At the start of the study, rats were 22-26 weeks old.
(§2) Rats were dosed orally once per day for 5 days with one of the regimens listed below. There were five rats in each group and the last dose was administered two hours before euthanasia. • vehicle (50% DMSO/50% Dulbecco's PBS) • 17α-ethinyl-17β-estradiol (EE, 10 μg/kg) • Compound A (150 μg/kg) • Compound A (50 μg/kg) • Compound A (1.5 μg/kg) Stool quality was observed daily and graded according to the following scale: Diarrhea=3; soft stool=2; normal stool=1. At the end of the study, serum was collected and stored at −70° C. A section of colon was prepared for histological analysis and an additional segment was analyzed for myeloperoxidase activity.

For data set [2], the system named is HLA-B27 rats. Nature of the data set: Myeloperoxidase activity in colon of HLA-B27 rats (neutrophil infiltration). It is filed as in vivo, rat. How it is done: as §1
Rats were dosed orally once per day for 5 days with one of the regimens listed below. […] A section of colon was prepared for histological analysis and an additional segment was analyzed for myeloperoxidase activity.
Myeloperoxidase activity [Bradley, et al., Blood 60: 618-622 (1982)]. Myeloperoxidase activity was assessed as a measure of neutrophil infiltration into the colon. […]
Tissue was resuspended and homogenized in 2.5ml (1:5 w/v) of 50 mM H2KPO4 with 10 mM EDTA and 0.5% Hex Ammonium Bromide to help solubilize the intracellular MPO. […] The supernatant was analyzed following these steps.
The test mixture was prepared by adding 2.9 ml of 50 mM H2KPO4 with 0.167 O-Dianisidine/ml with 0.0005% H2O2 into a reaction tube. […] OD was measured every 2 minutes reaction time at 460 nm against a blank containing 2.9 ml of the reaction mixture and 100 μl of the 0.5% ammonium bromide solution. […]

The subject of data set [3] is HLA-B27 rats. Nature of the data set: Histological scoring of disease severity in the colon of HLA-B27 rats. It is filed as in vivo, rat. The conditions noted are these: for Fibrosis (0-2) / Inflammation (0-3) / Lesion depth (0-2) / Total score / Ulceration (0-2): histological score, colon. How it is done:
as §1, §2
Histological analysis. Colonic tissue was immersed in 10% neutral buffered formalin. Each specimen of colon was separated into four samples for evaluation. The formalin-fixed tissues were processed in a Tissue Tek vacuum infiltration processor (Miles, Inc; West Haven, Conn.) for paraffin embedding. The samples were sectioned at 5 μm and then stained with hematoxylin and eosin (H&E) for blinded histologic evaluations using a scale modified after Boughton-Smith. Sections of colonic tissue were evaluated for several disease indicators and given relative scores. After the scores were completed the samples were unblinded, and data were tabulated and analyzed by ANOVA linear modeling with multiple mean comparisons.

[4] abbreviates: 1.5 mcg/kg orally once per day for 5 days.
The mark [5] stands for this setting: 50 mcg/kg orally once per day for 5 days.
The mark [6] stands for this setting: 150 mcg/kg orally once per day for 5 days.

In the case of `C#C[C@]1(O)CC[C@H]2[C@@H]3CCc4cc(O)ccc4[C@H]3CC[C@@]21C` [17α-ethinylestradiol, 17α-ethinyl-17β-estradiol, reference compound], the Uterine wet weight result in the data set on immature female rats (1.5 μg/kg (EC80)) was “significantly stimulated”.
In turn, `CC1c2cc(F)ccc2-c2ccccc2N1S(=O)(=O)c1ccc(O)cc1` (centres unmarked) [Example 3, 4-[(8-Fluoro-6-methylphenanthridin-5(6H)-yl)sulfonyl]phenol] showed a melting point of 188 °C. The Stool score entry in the data set with HLA-B27 rats [1] (1.5 μg/kg oral) is recorded as “No effect”. The Stool score result in the data set with HLA-B27 rats [1] (50 μg/kg oral) is “No effect”. Also, the Stool score result in the data set on HLA-B27 rats [1] (150 μg/kg oral, after 4 days of treatment) is reported as “improvement in stool score”. In addition, the “MPO activity in colon” value in the data set with HLA-B27 rats [2] (150 μg/kg oral) is on record as “effectively inhibit MPO activity”. Besides, in the data set on HLA-B27 rats [2] (the lower doses (50 and 1.5 μg/kg) oral), the “MPO activity in colon” value is given as “no effect”. For the same compound, the “All disease parameters measured (ulcerations, lesions, fibrosis, inflammatory cells), colon histology” value in the data set with HLA-B27 rats [3] (50 μg/kg oral) was “significantly improved”. The “All disease parameters measured (ulcerations, lesions, fibrosis, inflammatory cells), colon histology” value with HLA-B27 rats [3] (150 μg/kg oral) was “significantly improved”. In the data set with HLA-B27 rats [3] (setting [4]), the “Fibrosis (0-2)” value amounted to 0.94 ± 0.52, the “Inflammation (0-3)” value is reported as 2.50 ± 0.35, the “Lesion depth (0-2)” value is on record as 1.1 ± 0.35 and the Total score stood at 5.75 ± 1.41. Also, the “Ulceration (0-2)” value in the data set with HLA-B27 rats [3] (setting [4]) turned out to be 1.25 ± 0.24. In the data set on HLA-B27 rats [3] (setting [5]), the “Fibrosis (0-2)” value is listed as 0.38 ± 0.32, the “Inflammation (0-3)” value came to 1.69 ± 0.52, the “Lesion depth (0-2)” value amounted to 0.56 ± 0.24 and the Total score turned out to be 3.25 ± 1.0. Besides, the “Ulceration (0-2)” value with HLA-B27 rats [3] (setting [5]) worked out at 0.63 ± 0.25. Also, in the data set with HLA-B27 rats [3] (setting [6]), the “Fibrosis (0-2)” value turned out to be 0.19 ± 0.24, the “Inflammation (0-3)” value is 1.50 ± 0.20, the “Lesion depth (0-2)” value is on record as 0.31 ± 0.24 and the Total score amounted to 2.38 ± 0.83. Further, the “Ulceration (0-2)” value in the data set on HLA-B27 rats [3] (setting [6]) was determined as 0.38 ± 0.32. Moreover, in the data set on immature female rats (50 mg/kg orally once per day for three days), the Uterine wet weight result is on record as “no increase”.
Turning to `COc1cc(OC)cc(N2CCN(C(=O)[C@](C)(C#N)[C@H](c3ccccc3OC)c3cccc4ccccc34)CC2)c1` [Example 4, (S)-3-[4-(3,5-dimethoxyphenyl)piperazin-1-yl]-2-[(S)-(2-methoxyphenyl)(1-naphthyl)methyl]-2-methyl-3-oxopropanenitrile], the melting point fell in the range of 186 to 188 °C.

The term melting point denotes the temperature of the solid-liquid transition.

The values are drawn from patent US20050119276A1, “Methods of treating inflammatory bowel disease using NF-kB inhibitors” (Wyeth, priority 2003, published 2005).
